The record followed here is patent US20240316045A1, “CYCLOPROPYLAMIDE COMPOUNDS AGAINST PARASITES IN FISH” (Intervet Inc., priority 2021, published 2024).

Molecules are shown by their SMILES. pEC50: −log10 of the molar value. Some results are limits rather than exact numbers.

Assay [1] concerns Copepodids (juvenile sea lice stage of Lepeophtheirus salmonis). Put plainly: Juvenile sea lice contact assay. Conditions: approx. 24 hours continuous exposure, read-out: Sea lice inhibition (% of dead+damaged copepodids); for inhibition at 0.01 µM: test concentration 10 nM; for inhibition at 0.1 µM: test concentration 100 nM. The protocol:
Copepodids (juvenile sea lice stage of Lepeophtheirus salmonis) were exposed to seawater spiked with declining concentrations of a test compound (dissolved in a DMSO sea-water mixture). Sea lice inhibition (% of dead+damaged copepodids) was assessed after approximately 24 hours of continuous exposure. The vitality of used parasites was confirmed in a negative (solvent) control group.

Assay [2] has as its system Mobile stages of sea lice (pre-adults, adults of Lepeophtheirus salmonis). Description: Adult sea lice contact assay. The settings on record: pre-adult/adult L. salmonis, assessed after approx. 1 and 24 hours, time of EC50 not stated, read-out: EC50 (sea lice inhibition, dead+damaged). The protocol:
Mobile stages of sea lice (i.e., pre-adults, adults of Lepeophtheirus salmonis) were exposed to seawater spiked with declining concentrations of a test compound (dissolved in a PEG sea-water mixture). Sea lice inhibition (% of dead+damaged sea lice) was assessed after approximately 1 and 24 hours of continuous exposure in comparison to a negative (solvent) control group.

`Cc1ccccc1NC(=O)c1cc(NC(=O)C2C(c3cc(Cl)cc(Cl)c3)C2(Cl)Cl)ccc1Cl` (stereo not drawn) [Compound 1000]: the inhibition at 0.01 µM in assay [1] turned out to be 100%.
Take `Cc1ccc(NC(=O)C2C(c3cc(Cl)cc(Cl)c3)C2(Cl)Cl)cc1C(=O)Nc1ccc(F)cc1` (stereo not drawn) [Compound 1001]: the inhibition at 0.1 µM in assay [1] is 100%.
Consider `O=C(Nc1ccccc1)c1cc(NC(=O)C2C(c3cc(Cl)cc(Cl)c3)C2(Cl)Cl)ccc1Cl` (stereo not drawn) [Compound 1004], for which the inhibition at 0.01 µM in assay [1] came out at 80%.
As to `N#Cc1cccc(NC(=O)c2cc(NC(=O)C3C(c4cc(Cl)cc(Cl)c4)C3(Cl)Cl)ccc2Cl)c1` (stereo not drawn) [Compound 1005], the inhibition at 0.1 µM in assay [1] was 100%.
Turning to `O=C(Nc1c(F)cc(F)cc1F)c1cc(NC(=O)C2C(c3cc(Cl)cc(Cl)c3)C2(Cl)Cl)ccc1Cl` (stereo not drawn) [Compound 1006], the pEC50 in assay [2] was at least 9.00.
Regarding `O=C(Nc1cccnc1)c1cc(NC(=O)C2C(c3cc(Cl)cc(Cl)c3)C2(Cl)Cl)ccc1Cl` (stereo not drawn) [Compound 1008], the inhibition at 0.1 µM in assay [1] was found to be 100%.
Still for that read-out and setting: the result for `O=C(Nc1ccc(Cl)nc1)c1cc(NC(=O)C2C(c3cc(Cl)cc(Cl)c3)C2(Cl)Cl)ccc1Cl` (stereo not drawn) [Compound 1010] reads 100%.
On to `N#Cc1ccc(NC(=O)c2cc(NC(=O)C3C(c4cc(Cl)cc(Cl)c4)C3(Cl)Cl)ccc2Cl)cn1` (stereo not drawn) [Compound 1011], for which the inhibition at 0.01 µM in assay [1] came to 100%.
Turning to `Cc1cc(Cl)cc(C2C(C(=O)Nc3ccc(Cl)c(C(=O)Nc4ccc(F)cc4)c3)C2(Cl)Cl)c1` (stereo not drawn) [Compound 1016], the inhibition at 0.1 µM in assay [1] stood at 100%.
Same read-out and setting: for `Cc1cc(Cl)cc(C2C(C(=O)Nc3ccc(Cl)c(C(=O)Nc4c(F)cccc4F)c3)C2(Cl)Cl)c1` (stereo not drawn) [Compound 1018] the value was 100%; for `O=C(Nc1ccc(F)cc1)c1cc(NC(=O)C2C(c3cc(Cl)cc(Cl)c3)C2(Cl)Cl)ccc1Cl` (stereo not drawn) [Compound 1021], 100%; for `CN(C(=O)c1cc(NC(=O)C2C(c3cc(Cl)cc(Cl)c3)C2(Cl)Cl)ccc1Cl)c1ccc(F)cc1` (stereo not drawn) [Compound 1022], at least 80%.
For the molecule `N#Cc1cc(F)ccc1NC(=O)c1cc(NC(=O)C2C(c3cc(Cl)cc(Cl)c3)C2(Cl)Cl)ccc1Cl` (stereo not drawn) [Compound 1026], the inhibition at 0.1 µM in assay [1] stood at 100%.
On the same count and under the same terms, for `O=C(Nc1ncc(F)cn1)c1cc(NC(=O)C2C(c3cc(Cl)cc(Cl)c3)C2(Cl)Cl)ccc1Cl` (stereo not drawn) [Compound 1028] the value was 100%; for `O=C(Nc1cccc(F)n1)c1cc(NC(=O)C2C(c3cc(Cl)cc(Cl)c3)C2(Cl)Cl)ccc1Cl` (stereo not drawn) [Compound 1030], at least 80%.
Same read-out and setting: the result for `Cc1cc(F)cnc1NC(=O)c1cc(NC(=O)C2C(c3cc(Cl)cc(Cl)c3)C2(Cl)Cl)ccc1Cl` (stereo not drawn) [Compound 1031] reads 100%.
For `O=C(Nc1cncnc1)c1cc(NC(=O)C2C(c3cc(Cl)cc(Cl)c3)C2(Cl)Cl)ccc1Cl` (stereo not drawn) [Compound 1038], the inhibition at 0.01 µM in assay [1] amounted to 80%.
Regarding `N#Cc1cccc(F)c1NC(=O)c1cc(NC(=O)C2C(c3cc(Cl)cc(Cl)c3)C2(Cl)Cl)ccc1Cl` (stereo not drawn) [Compound 1040], the inhibition at 0.1 µM in assay [1] was found to be 100%.
For the molecule `O=C(Nc1ncc(F)cc1F)c1cc(NC(=O)[C@H]2[C@H](c3ccc(Cl)c(Cl)c3)C2(Cl)Cl)ccc1Cl` [Compound 1041], in assay [2], the pEC50 is 8.00 to 9.00.
Same read-out and setting: for `O=C(Nc1ncc(F)cc1F)c1cc(NC(=O)[C@H]2[C@H](c3ccc(F)c(Cl)c3)C2(Cl)Cl)ccc1Cl` [Compound 1042] the value was 8.00 to 9.00.
As for `Nc1cccc(NC(=O)c2cc(NC(=O)C3C(c4cc(Cl)cc(Cl)c4)C3(Cl)Cl)ccc2Cl)n1` (stereo not drawn) [Compound 1045], the inhibition at 0.1 µM in assay [1] came out at 100%.
The same measure, in the same setting: for `Nc1cccc(NC(=O)c2cc(NC(=O)C3C(c4ccc(F)c(Cl)c4)C3(Cl)Cl)ccc2Cl)n1` (stereo not drawn) [Compound 1046] the value was 100%; for `N#Cc1cc(Cl)cc(C2C(C(=O)Nc3ccc(Cl)c(C(=O)Nc4ncc(F)cc4F)c3)C2(Cl)Cl)c1` (stereo not drawn) [Compound 1048], 100%.
Still for that read-out and setting: the result for `O=C(Nc1cncc([N+](=O)[O-])c1)c1cc(NC(=O)C2C(c3cc(Cl)cc(Cl)c3)C2(Cl)Cl)ccc1Cl` (stereo not drawn) [Compound 1051] reads 100%.
Same read-out and setting: the result for `O=C(Nc1ccnc(Cl)c1)c1cc(NC(=O)C2C(c3cc(Cl)cc(Cl)c3)C2(Cl)Cl)ccc1Cl` (stereo not drawn) [Compound 1055] reads at least 80%; that for `O=C(Nc1ncc(F)c(I)c1F)c1cc(NC(=O)C2C(c3cc(Cl)cc(Cl)c3)C2(Cl)Cl)ccc1Cl` (stereo not drawn) [Compound 1060], 100%.
In the case of `Cc1cc(NC(=O)c2cc(NC(=O)C3C(c4cc(Cl)cc(Cl)c4)C3(Cl)Cl)ccc2Cl)cnc1F` (stereo not drawn) [Compound 1064], the inhibition at 0.1 µM in assay [1] came out at 100%.
Same read-out and setting: for `COc1cc(NC(=O)c2cc(NC(=O)C3C(c4cc(Cl)cc(Cl)c4)C3(Cl)Cl)ccc2Cl)ccn1` (stereo not drawn) [Compound 1069] the value was 100%; for `COc1ccc(NC(=O)c2cc(NC(=O)C3C(c4cc(Cl)cc(Cl)c4)C3(Cl)Cl)ccc2Cl)cn1` (stereo not drawn) [Compound 1075], 100%.
Same read-out and setting: for `COc1ccc(NC(=O)c2cc(NC(=O)C3C(c4ccc(F)c(Cl)c4)C3(Cl)Cl)ccc2Cl)cn1` (stereo not drawn) [Compound 1076] the value was at least 80%; for `O=C(Nc1ncc(F)cc1F)c1cc(NC(=O)C2C(c3cc(Cl)cc(C(F)F)c3)C2(Cl)Cl)ccc1Cl` (stereo not drawn) [Compound 1079], 100%; for `O=C(Nc1ncc(F)cc1F)c1cc(NC(=O)C2C(c3ccc(Cl)c(C(F)F)c3)C2(Cl)Cl)ccc1Cl` (stereo not drawn) [Compound 1080], 100%.
With `O=C(Nc1ncc(F)cc1F)c1cc(NC(=O)C2C(c3cc(F)cc(C(F)F)c3)C2(Cl)Cl)ccc1Cl` (stereo not drawn) [Compound 1081], in assay [1], the inhibition at 0.1 µM is 100%.
For `O=C(Nc1ncc(F)cc1F)c1cc(NC(=O)C2C(c3ccc(F)c(C(F)F)c3)C2(Cl)Cl)ccc1Cl` (stereo not drawn) [Compound 1082], the inhibition at 0.1 µM in assay [1] was 100%.
On the same count and under the same terms, for `O=C(Nc1ncc(F)cc1F)c1cc(NC(=O)C2C(c3ccc(C(F)F)c(Cl)c3)C2(Cl)Cl)ccc1Cl` (stereo not drawn) [Compound 1083] the value was 100%; for `O=C(Nc1ncc(F)cc1F)c1cc(NC(=O)C2C(c3cccc(C(F)F)c3)C2(Cl)Cl)ccc1Cl` (stereo not drawn) [Compound 1085], 100%.
As to `O=C(Nc1ccc(F)cc1F)c1cc(NC(=O)[C@H]2[C@H](c3cc(Cl)cc(Cl)c3)C2(Cl)Cl)ccc1F` [Compound 1091], the pEC50 in assay [2] was 8.00 to 9.00.
Same read-out and setting: for `O=C(Nc1c(F)cc(F)cc1F)c1cc(NC(=O)[C@H]2[C@H](c3cc(Cl)cc(Cl)c3)C2(Cl)Cl)ccc1Cl` [Compound 1092] the value was 7.60 to 9.00.
Same read-out and setting: the result for `O=C(Nc1ccc(F)cc1F)c1cc(NC(=O)[C@H]2[C@H](c3cc(F)c(F)c(F)c3)C2(Cl)Cl)ccc1Cl` [Compound 1094] reads 8.00 to 9.00; that for `O=C(Nc1ncc(F)cc1F)c1cc(NC(=O)[C@H]2[C@H](c3cc(Cl)cc(Cl)c3)C2(Cl)Cl)ccc1Cl` [Compound 1097], 8.00 to 9.00; that for `Cc1cc(NC(=O)c2cc(NC(=O)[C@H]3[C@H](c4cc(Cl)cc(Cl)c4)C3(Cl)Cl)ccc2Cl)ncc1F` [Compound 1098], 8.00 to 9.00.
Regarding `Nc1c(F)ccc(NC(=O)c2cc(NC(=O)C3C(c4cc(F)cc(C(F)(F)F)c4)C3(Cl)Cl)ccc2Cl)c1F` (stereo not drawn) [Compound 1132], the inhibition at 0.1 µM in assay [1] turned out to be 100%.
On the same count and under the same terms, for `Nc1c(F)ccc(NC(=O)c2cc(NC(=O)C3C(c4cccc(F)c4)C3(Cl)Cl)ccc2Cl)c1F` (stereo not drawn) [Compound 1227] the value was 100%.
Same read-out and setting: the result for `Nc1c(F)ccc(NC(=O)c2cc(NC(=O)C3C(c4cccc(C(F)(F)F)c4)C3(Cl)Cl)ccc2Cl)c1F` (stereo not drawn) [Compound 1243] reads 100%; that for `Nc1c(F)ccc(NC(=O)c2cc(NC(=O)C3C(c4cccc(Cl)c4)C3(Cl)Cl)ccc2Cl)c1F` (stereo not drawn) [Compound 1248], 100%.
With `O=C(Nc1cnc(F)cc1F)c1cc(NC(=O)[C@H]2[C@H](c3cc(Cl)cc(Cl)c3)C2(Cl)Cl)ccc1Cl` [Compound 1366], the negative logarithm of the EC50 (pEC50) in assay [2] was 8.00 to 9.00.
The same measure, in the same setting: for `O=C(Nc1c(F)ccnc1F)c1cc(NC(=O)[C@H]2[C@H](c3cc(Cl)cc(Cl)c3)C2(Cl)Cl)ccc1Cl` [Compound 1367] the value was 8.00 to 9.00; for `O=C(Nc1ncc(F)cn1)c1cc(NC(=O)[C@H]2[C@H](c3cc(Cl)cc(Cl)c3)C2(Cl)Cl)ccc1Cl` [Compound 1372], 8.00 to 9.00.
With `O=C(Nc1ccc2nccn2c1)c1cc(NC(=O)C2C(c3cc(Cl)cc(Cl)c3)C2(Cl)Cl)ccc1Cl` (stereo not drawn) [Compound 1373], the inhibition at 0.1 µM in assay [1] turned out to be 100%.
For the molecule `O=C(Nc1cnc(F)cc1F)c1cc(NC(=O)[C@H]2[C@H](c3cc(Cl)c(Cl)c(Cl)c3)C2(Cl)Cl)ccc1Cl` [Compound 1380], the pEC50 in assay [2] is 8.00 to 9.00.
With `O=C(Nc1ncc(F)cc1F)c1c(Cl)ccc(NC(=O)C2C(c3cc(Cl)cc(Cl)c3)C2(Cl)Cl)c1F` (stereo not drawn) [Compound 1381], in assay [1], the inhibition at 0.1 µM is 100%.
On the same count and under the same terms, for `Cc1ccc(NC(=O)C2C(c3ccc(Cl)c(Cl)c3)C2(Cl)Cl)c(F)c1C(=O)Nc1ncc(F)cc1F` (stereo not drawn) [Compound 1382] the value was 100%; for `O=C(Nc1ncc(F)cc1F)c1cc(NC(=O)C2C(c3cc(Cl)c(Cl)c(Cl)c3)C2(Cl)Cl)ccc1Cl` (stereo not drawn) [Compound 1384], 100%.
On to `O=C(Nc1ccc(F)cc1F)c1cc(NC(=O)C2C(c3cc(C(F)(F)F)cc(C(F)(F)F)c3)C2(Cl)Cl)ccc1Cl` (stereo not drawn) [Compound 1386], for which, in assay [1], the inhibition at 0.01 µM was 80%.
